# Assay results: patent publication US20140024716A1, “Composition Comprising S-Allyl-L-Cysteine as Active Ingredient for Preventing or Treating Gastrointestinal Disorders” (PHARMAKING CO., LTD., priority 2009, published 2014)
# “Also recorded” adds a separate entry of the source. Read-outs that look alike come from different tables or passages of the source.
# Legend:
# [1] = design: species or system C57BL/6 mice; details: mouse, in vivo
# Procedure: (§1) S-allyl-L-Cysteine (SAC) was purchased from TCI Chemical Co. (Tokyo, Japan). Helicobacter pylori was American Type Culture Collection (ATCC) 43504 (cagA+, vacA s1-ml type) and cultured in a Mueller Hinton-Agar broth at 37° C. for 48 hours, under 5% CO2 microaerophilic conditions with a concentration of 1×10^9 CFU/ml.
# 8-week old male specific pathogen free (SPF) C57BL/6 mice were used. Weights of the mice were measured in the Animal Lab, Department of Pathology, the College of Veterinary Medicine, Kyungbook National University. Then, the mice were classified into 4 groups and bred such that average weights of each group are similar to each other. The mice were acclimated and bred in the Animal Lab, Department of Pathology, the College of Veterinary Medicine, Kyungbook National University at a temperature of 22±3° C., at a relative humidity of 50±10%, with light for 12 hours (light turned on at 08:00 and light turned off at 20:00) by an automatic temperature and humidity control system. Other environments for breeding which might influence the test for the entire test period were not considered for use. […]
# Weights of male C57BL/6 mice infected with Helicobacter pylori ere measured three times a week for the entire 10-week test period to observe weight changes of the mice.
# H. pylori ATCC 43504 = test: Serum anti-H. pylori IgG (ELISA) in Helicobacter pylori-infected mice; type: in vivo, C57BL/6 mice
# Procedure: as §1
# (§2) 8-week old male C57BL/6 mice were classified into 4 groups, i.e., a positive control group (to which Helicobacter pylori was administered; PC), a negative control group (to which saline was administered; NC), experimental group 1 (to which Helicobacter pylori and 200 mg/kg of SAC were administered; SAC1), and experimental group 2 (to which Helicobacter pylori and 400 mg/kg of SAC were administered; SAC2). Each group had 10 mice. White powdered SAC was diluted in tap water to concentrations of 20 mg/mL and 40 mg/mL and 10 μl/g (body weight) of the diluted SAC was orally administered to the mice of the SAC1 and SAC2 groups three times a week for 10 weeks. The mice were given free access to tap water for the entire test period. […]
# (§3) Enzyme-linked immunosorbent assay (ELISA) was used in order to identify the effect of SAC on serum anti-Helicobacter pylori antibody-formation capability. […] 100 μl of 0.2 M sulfuric acid was added thereto to terminate the reaction and absorbance was measured at 450 nm.
# [2] = system: Helicobacter pylori-producing toxin VacA; test: Serum anti-s1 m1 VacA IgG (ELISA) in Helicobacter pylori-infected mice; type: in vivo, C57BL/6 mice; details: SAC1 and SAC2 groups (200 and 400 mg/kg SAC)
# Procedure: as §1, §2, §3
# TNF-α = test: Serum TNF-α in Helicobacter pylori-infected mice; type: in vivo, C57BL/6 mice; details: SAC1 and SAC2 groups (200 and 400 mg/kg SAC), p<0.09
# Procedure: as §2, with “period. The Helicobacter pylori was collected with saline to a concentration of 1×10^9 CFU/mL, and 0.2 mL of the diluted Helicobacter pylori was orally administered to each mouse for 8 weeks from 2 weeks after SAC administration.” for “period.”
# In order to observe the effect of SAC on an inflammation factor of TNF-α in serum, a commercially available mouse TNF-α antibody analysis kit Microplate (R&D systems Inc., USA) was used and concentrations of TNF-α in serum of mice were measured according to the manuals of the kit.
# Helicobacter pylori [3] = test: Histological change of stomach caused by Helicobacter pylori (H&E staining); type: in vivo, C57BL/6 mice
# Procedure: (§4) 8-week old male C57BL/6 mice were classified into 4 groups, i.e., a positive control group (to which Helicobacter pylori was administered; PC), a negative control group (to which saline was administered; NC), experimental group 1 (to which Helicobacter pylori and 200 mg/kg of SAC were administered; SAC1), and experimental group 2 (to which Helicobacter pylori and 400 mg/kg of SAC were administered; SAC2). Each group had 10 mice. White powdered SAC was diluted in tap water to concentrations of 20 mg/mL and 40 mg/mL and 10 μl/g (body weight) of the diluted SAC was orally administered to the mice of the SAC1 and SAC2 groups three times a week for 10 weeks. The mice were given free access to tap water for the entire test period. The Helicobacter pylori was collected with saline to a concentration of 1×10^9 CFU/mL, and 0.2 mL of the diluted Helicobacter pylori was orally administered to each mouse for 8 weeks from 2 weeks after SAC administration. The mice were fasted for 8 hours before the infection, and 0.15 mL of 0.2 M sodium bicarbonate (NaHCO3) was administered to each mouse 10 minutes before the administration of Helicobacter pylori in order to neutralize acidified stomach due to the fasting. The same amount of saline instead of the infectious substances was administered into the NC group. The mice of all groups were fed with a normal diet. After a 10-week test period, autopsies were performed on all mice, and samples of blood and internal organs were collected for tissue pathological analyses. […]
# A stomach sample was fixed with 10% formalin and a paraffin block was formed. […] In addition, the number of eosinophils was checked from a region where the esophagus and stomach join and counted from three regions of the stomach, i.e., cardia, gastric pit, and gastric crypt of lamina propria. The number of mitotic figures was counted from two regions selected from the entire antrum from cardia to pylorus. Thus two samples were obtained from each animal and evaluated with a 400× magnification, and an average value of each group was calculated.
# Helicobacter pylori [4] = test: Serologic parameters (GOT, GPT) in Helicobacter pylori-infected mouse model; type: in vivo, C57BL/6 mice; details: SAC1 and SAC2 groups
# Procedure: as §4, with “diet.” for “diet. After a 10-week test period, autopsies were performed on all mice, and samples of blood and internal organs were collected for tissue pathological analyses.”
# Cu/Zn-SOD = test: Serum Cu/Zn-SOD level in Helicobacter pylori infection model; type: in vivo, C57BL/6 mice; details: for Cu/Zn-SOD level greater than that of the PC group by: serum
# Procedure: 8-week old male C57BL/6 mice were classified into 4 groups, i.e., a positive control group (to which Helicobacter pylori was administered; PC), a negative control group (to which saline was administered; NC), experimental group 1 (to which Helicobacter pylori and 200 mg/kg of SAC were administered; SAC1), and experimental group 2 (to which Helicobacter pylori and 400 mg/kg of SAC were administered; SAC2). Each group had 10 mice. White powdered SAC was diluted in tap water to concentrations of 20 mg/mL and 40 mg/mL and 10 μl/g (body weight) of the diluted SAC was orally administered to the mice of the SAC1 and SAC2 groups three times a week for 10 weeks. The mice were given free access to tap water for the entire test period. The Helicobacter pylori was collected with saline to a concentration of 1×10^9 CFU/mL, and 0.2 mL of the diluted Helicobacter pylori was orally administered to each mouse for 8 weeks from 2 weeks after SAC administration. The mice were fasted for 8 hours before the infection, and 0.15 mL of 0.2 M sodium bicarbonate (NaHCO3) was administered to each mouse 10 minutes before the administration of Helicobacter pylori in order to neutralize acidified stomach due to the fasting. The same amount of saline instead of the infectious substances was administered into the NC group. The mice of all groups were fed with a normal diet. After a 10-week test period, autopsies were performed on all mice, and samples of blood and internal organs were collected for tissue pathological analyses. The test was performed according to the process of FIG. 19.
# In this regard, a superoxide dismutase activity assay kit (BioVision, Mountain View, Calif., USA) was used. 20 μl of serum and 200 μl of a WST working solution as a substrate were mixed. 20 μl of an enzyme working solution was added thereto, and the mixture was maintained at 37° C. for 20 minutes. Absorbance was measured at 450 nm. A control reaction was conducted in the same manner as described above, except that 20 μl of distilled water was added thereto instead of serum. SOD activity (inhibition rate %) was calculated.
smiles,measurement,setting,value
"C=CCSC[C@H](N)C(=O)O [SAC, S-allyl-L-cysteine]",weight increase rate less than the PC group by,[1]; 200 mg/kg,2%
same,weight increase rate less than the PC group by,[1]; 400 mg/kg,0.2%
same,"antibody titer of anti-H. pylori IgG in serum, SAC2 versus SAC1 group",H. pylori ATCC 43504; 400 mg/kg versus 200 mg/kg SAC,significantly less than that in the SAC1 group
same,antibody titer of anti-H. pylori IgG in serum versus PC group,"H. pylori ATCC 43504; SAC1 and SAC2 groups (200 and 400 mg/kg SAC oral, 10 weeks)",significantly less; also recorded: less than that in the PC group
same,production of antibody against VacA (anti-s1 m1 VacA IgG),[2],inhibited in the same manner as in the anti-H. pylori IgG
same,serum TNF-α versus PC group,TNF-α,reduced; also recorded: less than that of the PC group
same,number of eosinophils in stomach versus PC group,Helicobacter pylori [3]; SAC1 and SAC2 groups (200 and 400 mg/kg SAC),significantly reduced; also recorded: less than that of the PC group
same,number of eosinophils in stomach versus PC group,"Helicobacter pylori [3]; SAC1 group (200 mg/kg SAC), p<0.05",significantly less than that of the PC group
same,number of mitotic figures,Helicobacter pylori [3]; SAC2 group (400 mg/kg SAC),slightly reduced
same,serum GPT level versus PC group,Helicobacter pylori [4]; not significantly different,less than that of the PC group; also recorded: less than the positive control group
same,serum GOT level versus PC group,Helicobacter pylori [4]; not significantly different (p<0.08),less than that of the PC group; also recorded: less than the positive control group
same,Cu/Zn-SOD level greater than that of the PC group by,Cu/Zn-SOD; SAC1 group (200 mg/kg SAC),about 4%
same,Cu/Zn-SOD level greater than that of the PC group by,Cu/Zn-SOD; SAC2 group (400 mg/kg SAC),about 3%
same,serum Cu/Zn-SOD level versus positive control group,"Cu/Zn-SOD; SAC-administered experimental group, dose not stated",higher than that of the positive control group
